Source: US20020098552A1, “Method for producing xanthosine-5'-monophosphate by fermentation using mutant strains of Coryneform bacteria” (priority 2000, published 2002)

How the values were obtained:
[1] = test system: Corynebacterium ammoniagenes AGRI45-11 (VKPM B-8009); assay type: cell-based; conditions: for Effect on growth of the XMP producer strain: in high concentration, strain AGRI45-11
Method: (§1) Corynebacterium ammoniagenes AGRI45-11 (VKPM B-8009) was treated with 50 μg/ml of NTG for 20 minutes. Then cells were plated on PYM medium having the composition (g/L): peptone—10.0, yeast extract—10.0, meat extract—5.0, NaCl—2.5, agar—20.0, and containing 40 g/L, or 50 g/L, or 60 g/L glycine. The inoculated plates were incubated at 30° C. for 5 days.
Corynebacterium ammoniagenes AGRI45-11 (VKPM B-8009) was treated with NTG, and cells were plated on the PYM medium as in Example 1, containing 45 μg/ml, or 50 μg/ml, or 55 μg/ml, or 60 μg/ml polymyxin. The inoculated plates were incubated at 30° C. for 5 days.
(§2) The parental strain Corynebacterium ammoniagenes AGRI45-11 (VKPM B-8009) was streaked onto PYM medium of Example 1, containing 5, 15, 30 or 50 μg/ml of rifampicin instead of glycine and inoculated plates were incubated at 34° C. for 3 days. The mutants resistant to rifampicin was selected from among spontaneously appeared colonies.
A series of mutants resistant to 50 or 100 μg/ml oligomycin was selected from the strain Corynebacterium anmoniagenes AGRI45-11 (VKPM B-8009) using the procedure, described in the Example 1, but oligomycin was used instead of glycine.
Corynebacterium ammoniagenes AGRI45-11 (VKPM B-8009) was treated with NTG, and cells were plated on PYM medium as in Example 1, containing 2, 4 or 6 μg/ml of CCCP instead of glycine. The inoculated plates were incubated at 30° C. for 5 days. […] This strain and the parent strain Corynebacterium ammoniagenes AGRI45-11 (VKPM B-8009) were each cultivated at 32° C. for 20 h with aeration in a seed medium as in the Example 1. Then 0.3 ml of the obtained culture was inoculated into 3 ml of the fermentation medium of the Example 1, in 20×200 mm test tubes, and cultivated at 32° C. for 72 hours with a rotary shaker. After the cultivation, an accumulated amount of XMP in the medium was determined by known method.
Corynebacterium ammoniagenes AGRI45-11 (VKPM B-8009) was treated with NTG as in Example 1, aliquots were introduced into 20×200 mm test tubes and incubated at 32° C. for 20 h with shaking in minimal medium having the following composition (see below) with a rotary shaker. Then the cells were collected and plated on the minimal medium agar and containing several combinations of the inhibitors:
(§3) The mutants resistant to the analogue were obtained using the procedure described in Example 6, except for the only combinations of the inhibitors was applied: DL-methionine sulfone-10 mg/ml +DL-methionine-20 mg/ml.

[2] = test system: Corynebacterium ammoniagenes AGRI67-52 (VKPM B-8004); assay: Growth of the oligomycin-resistant mutant in the presence of oligomycin; assay type: cell-based; conditions: mutant strain AGRI67-52
Method: A series of mutants resistant to 50 or 100 μg/ml oligomycin was selected from the strain Corynebacterium anmoniagenes AGRI45-11 (VKPM B-8009) using the procedure, described in the Example 1, but oligomycin was used instead of glycine. […] The best mutant, strain Corynebacterium ammoniagenes AGRI67-52 (VKPM B-8004) when tested in parallel as in Example 1 accumulated about 22 % more XMP than the parental strain Corynebacterium ammoniagenes AGRI45-11 (VKPM B-8009) (Table 4 ).

[3] = test system: Corynebacterium ammoniagenes AGRI93-38 (VKPM B-8003); assay: Growth of the rifampicin-resistant mutant with rifampicin; assay type: cell-based; conditions: mutant strain AGRI93-38
Method: as §2, with “colonies. Among the mutants the most productive strain Corynebacterium ammoniagenes AGRI93-38 (VKPM B-8003) was selected.” for “colonies.”

[4] = test system: Corynebacterium ammoniagenes AGRI47-51 (VKPM B-8007); assay: Growth of the methionine sulfone-resistant mutant with DL-methionine sulfone + DL-methionine; assay type: cell-based; conditions: mutant strain AGRI47-51
Method: as §3
Among the mutants which appeared after 4 to 8 days incubation the strain Corynebacterium ammoniagenes AGRI47-51 (VKPM B-8007) was selected. This strain and the parent strain Corynebacterium ammoniagenes AGRI45-11 (VKPM B-8009) were each cultivated at 32° C. for 20 h with aeration in a seed medium as in the Example 1. Then 0.3 ml of the obtained culture was inoculated into 3 ml of the fermentation medium of the Example 1, in 20×200 mm test tubes, and cultivated at 32° C. for 72 hours with a rotary shaker.

[5] = test system: Corynebacterium ammoniagenes AGRI101-51 (VKPM B-8010); assay: Growth of the polymyxin-resistant mutant in the presence of polymyxin; assay type: cell-based; conditions: mutant strain AGRI 101-51
[6] = test system: Gram-positive bacterium Corynebacterium ammoniagenes; assay: Growth inhibition of Corynebacterium ammoniagenes by polymyxin B; assay type: cell-based; conditions: high concentrations
Excerpt: Polymyxin B is a polypeptide antibiotics effective against Gram-negative bacteria. The cell membrane of the bacteria is considered to be the target of the antibiotic. […] The mutations conferring resistance to polymyxin B may affect cytoplasmic membrane and mimic a stress condition, inducing XMP efflux transporter. Therefore the mutants resistant to growth inhibition by the drug were selected.

[7] = test system: Corynebacterium ammoniagenes AGRI10-52 (VKPM B-8006); conditions: mutant strain AGRI10-52
Method: as §1

[8] = test system: Corynebacterium ammoniagenes AGRI97-52 (VKPM B-8008); assay: Growth of the CCCP-resistant mutant with CCCP; assay type: cell-based; conditions: mutant strain AGRI97-52
[9] = test system: Corynebacterium ammoniagenes AGRI11-51 (VKPM B-8005); assay: Growth of the methionine sulfoxide-resistant mutant with DL-methionine sulfoxide + DL-methionine; assay type: cell-based; conditions: mutant strain AGRI11-51
Method: Then the cells were collected and plated on the minimal medium agar and containing several combinations of the inhibitors:
Mutants which appeared after 4 to 8 days incubation were picked up and tested for their XMP productivity. Among them the strain Corynebacterium ammoniagenes AGRI11-51 (VKPM B-8005) was selected. This strain and the parent strain Corynebacterium anmoniagenes AGRI45-11 (VKPM B-8009) were each cultivated at 32° C. for 20 h with aeration in a seed medium as in the Example 1. Then 0.3 ml of the obtained culture was inoculated into 3 ml of the fermentation medium of the Example 1, in 20×200 mm test tubes, and cultivated at 32° C. for 72 hours with a rotary shaker. After the cultivation, an accumulated amount of XMP in the medium was determined by known method.

Compound: CC[C@H]1/C=C/C=C/C[C@@H](C)[C@H](O)[C@@](C)(O)C(=O)[C@@H](C)[C@H](O)[C@@H](C)C(=O)[C@@H](C)[C@H](O)[C@@H](C)/C=C/C(=O)O[C@@H]2[C@H](C)[C@H](CC1)O[C@]1(CC[C@H](C)[C@H](C[C@@H](C)O)O1)[C@H]2C [oligomycin]
- Growth in the presence of 100 μg/ml oligomycin ([1]; 100 μg/ml oligomycin, parent strain AGRI45-11): −
- Growth in the presence of 100 μg/ml oligomycin [2]: +

Compound: CSCCC(N)C(=O)O (racemic) [DL-methionine]
- Effect on growth of the XMP producer strain [1]: inhibited the growth

Compound: CO[C@H]1/C=C/O[C@@]2(C)Oc3c(C)c(O)c4c(O)c(c(/C=N/N5CCN(C)CC5)c(O)c4c3C2=O)NC(=O)/C(C)=C\C=C\[C@H](C)[C@H](O)[C@@H](C)[C@@H](O)[C@@H](C)[C@H](OC(C)=O)[C@@H]1C [rifampicin]
- Growth with 15 μg/ml rifampicin ([1]; 15 μg/ml rifampicin, parent strain AGRI45-11): −
- Growth with 15 μg/ml rifampicin [3]: +

Compound: CS(=O)(=O)CCC(N)C(=O)O (racemic) [DL-methionine sulfone]
- Growth with 10 mg/ml DL-methionine sulfone + 20 mg/ml DL-methionine ([1]; 10 mg/ml DL-methionine sulfone + 20 mg/ml DL-methionine, parent strain AGRI45-11): −
- Effect on growth of the XMP producer strain [1]: inhibited the growth
- Growth with 10 mg/ml DL-methionine sulfone + 20 mg/ml DL-methionine [4]: +

Compound: Polymyxin B
- Growth in the presence of 45 μg/ml polymyxin ([1]; 45 μg/ml polymyxin, parent strain AGRI45-11): −
- Growth in the presence of 45 μg/ml polymyxin [5]: +
- Concentration that inhibited the growth [6]: 40 to 50 µg/mL

Compound: NCC(=O)O [glycine]
- Growth in the presence of 6% glycine ([1]; 6% glycine, parent strain AGRI45-11): −
- Growth in the presence of 6% glycine [7]: +

Compound: N#CC(C#N)=NNc1cccc(Cl)c1 [CCCP, Carbonyl cyanide m-chlorophenyl hydrazone]
- Growth with 4 μg/ml CCCP ([1]; 4 μg/ml CCCP, parent strain AGRI45-11): −
- Growth with 4 μg/ml CCCP [8]: +

Compound: C[S+]([O-])CCC(N)C(=O)O (racemic) [DL-methionine sulfoxide]
- Growth with 10 mg/ml DL-methionine sulfoxide + 20 mg/ml DL-methionine ([1]; 10 mg/ml DL-methionine sulfoxide + 20 mg/ml DL-methionine, parent strain AGRI45-11): −
- Effect on growth of the XMP producer strain [1]: inhibited the growth
- Growth with 10 mg/ml DL-methionine sulfoxide + 20 mg/ml DL-methionine [9]: +
